Reference: patent US12077503B2, “Substituted cyclic amides and their use as herbicides” (FMC CORPORATION, priority 2015, dated 2024)

Columns and labels:
Type in all cases: in vivo
[1] = system: Kochia (Kochia scoparia); assay: Test A preemergence; details: for Kochia plant response rating (0 to 100 scale, 0 is no effect, 100 is complete control): visual injury approx. 10 d
Outline: (§1)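 Greenhouse, ~10 d after spray; visual injury vs untreated controls, 0 = no effect, 100 = complete control. Preemergence: directed soil spray over planted seeds. Postemergence: plants 2–10 cm, 1–2 leaf stage. Loam/sand blend. Compound in non-phytotoxic solvent with surfactant.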

[2] = system: barnyardgrass (Echinochloa crus-galli); assay: Test A preemergence; details: for Barnyardgrass plant response rating (0 to 100 scale, 0 is no effect, 100 is complete control): visual injury approx. 10 d
Outline: as §1

[3] = system: giant foxtail (Setaria faberii); assay: Test A preemergence; details: for Foxtail, Giant plant response rating (0 to 100 scale, 0 is no effect, 100 is complete control): visual injury approx. 10 d
Outline: as §1

[4] = system: pigweed (Amaranthus retroflexus); assay: Test A preemergence; details: for Pigweed plant response rating (0 to 100 scale, 0 is no effect, 100 is complete control): visual injury approx. 10 d
[5] = system: ragweed (common ragweed, Ambrosia elatior); assay: Test A preemergence; details: for Ragweed plant response rating (0 to 100 scale, 0 is no effect, 100 is complete control): visual injury approx. 10 d
Outline: as §1

[6] = system: ryegrass, Italian (Italian ryegrass, Lolium multiflorum); assay: Test A preemergence; details: for Ryegrass, Italian plant response rating (0 to 100 scale, 0 is no effect, 100 is complete control): visual injury approx. 10 d
Outline: as §1

[7] = system: Galium (catchweed bedstraw, Galium aparine); assay: Test A postemergence
Outline: as §1

[8] = system: Kochia (Kochia scoparia); assay: Test A postemergence
Outline: as §1

[9] = system: barnyardgrass (Echinochloa crus-galli); assay: Test A postemergence; details: for Barnyardgrass plant response rating: visual injury rating on 0 to 100 scale (0 no effect, 100 complete control), approx. 10 d
Outline: as §1

[10] = system: blackgrass (Alopecurus myosuroides); assay: Test A postemergence; details: for Blackgrass plant response rating: visual injury rating on 0 to 100 scale (0 no effect, 100 complete control), approx. 10 d
Outline: as §1

[11] = system: corn (Zea mays); assay: Test A postemergence
Outline: as §1

[12] = system: giant foxtail (Setaria faberii); assay: Test A postemergence
Outline: as §1

[13] = system: pigweed (Amaranthus retroflexus); assay: Test A postemergence
Outline: as §1

[14] = system: ragweed (common ragweed, Ambrosia elatior); assay: Test A postemergence
Outline: as §1

[15] = system: ryegrass, Italian (Italian ryegrass, Lolium multiflorum); assay: Test A postemergence
Outline: as §1

[16] = system: wheat (Triticum aestivum); assay: Test A postemergence
Outline: as §1

[17] = system: barnyardgrass (Echinochloa crus-galli); assay: Test B flooded paddy test; details: Flood, 0 to 100 scale where 0 is no effect and 100 is complete control, 13 to 15 d
Outline: (§2)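 Evaluation by eye, against controls, occurred 13–15 d post-treatment in a greenhouse, using a 0 (no effect) to 100 (complete control) scale. Application was into the paddy water, 3 cm deep over the soil, on 2-leaf plants.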

[18] = system: ducksalad (Heteranthera limosa); assay: Test B flooded paddy test; details: Flood, 0 to 100 scale where 0 is no effect and 100 is complete control, 13 to 15 d
Outline: as §2

[19] = system: rice (Oryra sativa); assay: Test B flooded paddy test; details: Flood, 0 to 100 scale where 0 is no effect and 100 is complete control, 13 to 15 d
Outline: as §2

[20] = system: sedge, umbrella (small-flower umbrella sedge, Cyperus difformis); assay: Test B flooded paddy test; details: Flood, 0 to 100 scale where 0 is no effect and 100 is complete control, 13 to 15 d
Outline: as §2

[21] = 125 g ai/ha, preemergence, 0 to 100 scale (0 no effect, 100 complete control)
[22] = 125 g ai/ha, postemergence, visual injury rating on 0 to 100 scale (0 no effect, 100 complete control), approx. 10 d
[23] = 500 g ai/ha, postemergence, 0 to 100 scale, 0 no effect, 100 complete control
[24] = 125 g ai/ha, Preemergence, visual injury after approximately 10 d, 0 to 100 scale where 0 is no effect and 100 is complete control
[25] = 125 g ai/ha, postemergence, visual rating after approx. 10 d, 0 to 100 scale (0 no effect, 100 complete control)
[26] = Postemergence, 500 g ai/ha, 0 to 100 scale where 0 is no effect and 100 is complete control
[27] = 500 g ai/ha, preemergence, 0 to 100 scale, 0 = no effect, 100 = complete control

For `Cc1cc(NC(=O)C2C(=O)NCC2c2ccc(F)c(F)c2)ccc1F` (stereo not drawn) [Compound 412], the “Plant response rating, Kochia” value [1, 21] was 0, the “Kochia plant response rating (0 to 100 scale, 0 is no effect, 100 is complete control)” value ([1]; Preemergence, 500 g ai/ha) was 0 and the “Plant response rating, Barnyardgrass” value [2, 21] was 40. The “Barnyardgrass plant response rating (0 to 100 scale, 0 is no effect, 100 is complete control)” value ([2]; Preemergence, 500 g ai/ha) was 70, the “Plant response rating, Foxtail, Giant” value [3, 21] was 60 and the “Foxtail, Giant plant response rating (0 to 100 scale, 0 is no effect, 100 is complete control)” value ([3]; Preemergence, 500 g ai/ha) was 70. For the same molecule, the “Plant response rating, Pigweed” value [4, 21] was 0, the “Pigweed plant response rating (0 to 100 scale, 0 is no effect, 100 is complete control)” value ([4]; Preemergence, 500 g ai/ha) was 0 and the “Plant response rating, Ragweed” value [5, 21] was 0. The “Ragweed plant response rating (0 to 100 scale, 0 is no effect, 100 is complete control)” value ([5]; Preemergence, 500 g ai/ha) was 0, the “Plant response rating, Ryegrass, Italian” value [6, 21] was 0 and the “Ryegrass, Italian plant response rating (0 to 100 scale, 0 is no effect, 100 is complete control)” value ([6]; Preemergence, 500 g ai/ha) was 0. For the same molecule, the “Galium plant response rating” value [7, 22] was 0, the “Plant response rating, Galium” value [7, 23] was 0 and the “Kochia plant response rating” value [8, 22] was 0. The “Plant response rating, Kochia” value [8, 23] was 0, the “Barnyardgrass plant response rating” value ([9]; 125 g ai/ha, postemergence) was 0 and the “Plant response rating, Barnyardgrass” value [9, 23] was 0. For the same molecule, the “Blackgrass plant response rating” value ([10]; 125 g ai/ha, postemergence) was 0, the “Plant response rating, Blackgrass” value [10, 23] was 0 and the “Corn plant response rating” value [11, 22] was 0. For the same molecule, the “Plant response rating, Corn” value [11, 23] was 0, the “Foxtail, Giant plant response rating” value [12, 22] was 0 and the “Plant response rating, Foxtail, Giant” value [12, 23] was 0. The “Pigweed plant response rating” value [13, 22] was 0, the “Plant response rating, Pigweed” value [13, 23] was 0 and the “Ragweed plant response rating” value [14, 22] was 0. For the same molecule, the “Plant response rating, Ragweed” value [14, 23] was 0, the “Ryegrass, Italian plant response rating” value [15, 22] was 0 and the “Plant response rating, Ryegrass, Italian” value [15, 23] was 0. For the same molecule, the “Wheat plant response rating” value [16, 22] was 0, the “Plant response rating, Wheat” value [16, 23] was 0 and the “Plant response rating, Barnyardgrass” value ([17]; 500 g ai/ha) was 0. For the same molecule, the “Plant response rating, Ducksalad” value ([18]; 500 g ai/ha) was 30, the “Plant response rating, Rice” value ([19]; 500 g ai/ha) was 0 and the “Plant response rating, Sedge, Umbrella” value ([20]; 500 g ai/ha) was 0.
`O=C1NCC(c2ccc(Oc3ccccc3)cc2)C1C(=O)Nc1cccc(F)c1F` (racemic) [Compound 536] was tested, and the “Plant response rating, Kochia” value [1, 24] was 0, the “Kochia plant response rating (0 to 100 scale, 0 is no effect, 100 is complete control)” value ([1]; Preemergence, 500 g ai/ha) was 0 and the “Plant response rating, Barnyardgrass” value [2, 24] was 0. For the same molecule, the “Barnyardgrass plant response rating (0 to 100 scale, 0 is no effect, 100 is complete control)” value ([2]; Preemergence, 500 g ai/ha) was 0, the “Plant response rating, Foxtail, Giant” value [3, 24] was 0 and the “Foxtail, Giant plant response rating (0 to 100 scale, 0 is no effect, 100 is complete control)” value ([3]; Preemergence, 500 g ai/ha) was 20. The “Plant response rating, Pigweed” value [4, 24] was 0, the “Pigweed plant response rating (0 to 100 scale, 0 is no effect, 100 is complete control)” value ([4]; Preemergence, 500 g ai/ha) was 0 and the “Plant response rating, Ragweed” value [5, 24] was 0. The “Ragweed plant response rating (0 to 100 scale, 0 is no effect, 100 is complete control)” value ([5]; Preemergence, 500 g ai/ha) was 0, the “Plant response rating, Ryegrass, Italian” value [6, 24] was 0 and the “Ryegrass, Italian plant response rating (0 to 100 scale, 0 is no effect, 100 is complete control)” value ([6]; Preemergence, 500 g ai/ha) was 0. The “Plant response rating, Galium” value [7, 25] was 0, the “Plant response rating, Galium” value [7, 26] was 0 and the “Plant response rating, Kochia” value [8, 25] was 0. For the same molecule, the “Plant response rating, Kochia” value [8, 26] was 0, the “Barnyardgrass plant response rating” value ([9]; 125 g ai/ha, postemergence) was 0 and the “Plant response rating, Barnyardgrass” value [9, 26] was 0. For the same molecule, the “Blackgrass plant response rating” value ([10]; 125 g ai/ha, postemergence) was 0, the “Plant response rating, Blackgrass” value [10, 26] was 0 and the “Plant response rating, Corn” value [11, 25] was 0. For the same molecule, the “Plant response rating, Corn” value [11, 26] was 0, the “Plant response rating, Foxtail, Giant” value [12, 25] was 0 and the “Plant response rating, Foxtail, Giant” value [12, 26] was 30. For the same molecule, the “Plant response rating, Pigweed” value [13, 25] was 0, the “Plant response rating, Pigweed” value [13, 26] was 0 and the “Plant response rating, Ragweed” value [14, 25] was 0. The “Plant response rating, Ragweed” value [14, 26] was 0, the “Plant response rating, Ryegrass, Italian” value [15, 25] was 0 and the “Plant response rating, Ryegrass, Italian” value [15, 26] was 0. The “Plant response rating, Wheat” value [16, 25] was 0, the “Plant response rating, Wheat” value [16, 26] was 0 and the “Plant response rating, Barnyardgrass” value ([17]; 500 g ai/ha) was 30. The “Plant response rating, Ducksalad” value ([18]; 500 g ai/ha) was 0, the “Plant response rating, Rice” value ([19]; 500 g ai/ha) was 15 and the “Plant response rating, Sedge, Umbrella” value ([20]; 500 g ai/ha) was 0.
With `CN1CC(c2ccc(C(F)(F)F)cc2)C(C(=O)Nc2ccc(F)cc2F)C1=O` (stereo not drawn) [Compound 625] the “Plant response rating, Kochia” value [1, 24] was 50, the “Plant response rating, Kochia” value [1, 27] was 80 and the “Plant response rating, Barnyardgrass” value [2, 24] was 80. The “Plant response rating, Barnyardgrass” value [2, 27] was 90, the “Plant response rating, Foxtail, Giant” value [3, 24] was 90 and the “Plant response rating, Foxtail, Giant” value [3, 27] was 90. The “Plant response rating, Pigweed” value [4, 24] was 50, the “Plant response rating, Pigweed” value [4, 27] was 90 and the “Plant response rating, Ragweed” value [5, 24] was 20. For the same molecule, the “Plant response rating, Ragweed” value [5, 27] was 60, the “Plant response rating, Ryegrass, Italian” value [6, 24] was 30 and the “Plant response rating, Ryegrass, Italian” value [6, 27] was 50. The “Plant response rating, Galium” value [7, 25] was 30, the “Plant response rating, Galium” value [7, 26] was 60 and the “Plant response rating, Kochia” value [8, 25] was 30. The “Plant response rating, Kochia” value [8, 26] was 50, the “Plant response rating, Barnyardgrass” value [9, 25] was 80 and the “Plant response rating, Barnyardgrass” value [9, 26] was 90. For the same molecule, the “Plant response rating, Blackgrass” value [10, 25] was 30, the “Plant response rating, Blackgrass” value [10, 26] was 40 and the “Plant response rating, Corn” value [11, 25] was 10. For the same molecule, the “Plant response rating, Corn” value [11, 26] was 50, the “Plant response rating, Foxtail, Giant” value [12, 25] was 90 and the “Plant response rating, Foxtail, Giant” value [12, 26] was 90. The “Plant response rating, Pigweed” value [13, 25] was 20, the “Plant response rating, Pigweed” value [13, 26] was 50 and the “Plant response rating, Ragweed” value [14, 25] was 0. For the same molecule, the “Plant response rating, Ragweed” value [14, 26] was 20, the “Plant response rating, Ryegrass, Italian” value [15, 25] was 20 and the “Plant response rating, Ryegrass, Italian” value [15, 26] was 30. The “Plant response rating, Wheat” value [16, 25] was 0, the “Plant response rating, Wheat” value [16, 26] was 50 and the “Plant response rating, Barnyardgrass” value ([17]; 250 g ai/ha) was 40. For the same molecule, the “Plant response rating, Ducksalad” value ([18]; 250 g ai/ha) was 100, the “Plant response rating, Rice” value ([19]; 250 g ai/ha) was 0 and the “Plant response rating, Sedge, Umbrella” value ([20]; 250 g ai/ha) was 0.
